Experimental data from ChEMBL document CHEMBL3352216, “Triterpene glycosides from red ginseng marc and their anti-inflammatory activities” (Bioorg Med Chem Lett, 2014).
In brackets after ≈: the same amount, converted by molar mass. Activity calls are given as the source filed them. No cut-off for these calls is given here.

How the values were obtained:
[1] = Cytotoxicity against LPS-stimulated mouse RAW264.7 cells assessed as cell viability at 40 uM after 24 hrs by MTT assay (reference value: 100%); format: cell-based; settings: LPS-stimulated RAW264.7 cells, read-out: Activity
[2] = Cytotoxicity against LPS-stimulated mouse RAW264.7 cells assessed as cell viability at 120 uM after 24 hrs by MTT assay (reference value: 100%); format: cell-based; settings: LPS-stimulated RAW264.7 cells, read-out: Activity
RAW264.7 [3] = experiment: Antiinflammatory activity in LPS-stimulated mouse RAW264.7 cells assessed as reduction in nitric oxide production at 120 uM after 24 hrs by Griess method based ELISA (reference value: 52.4 +/- 0.9 uM); format: functional
RAW264.7 [4] = experiment: Antiinflammatory activity in LPS-stimulated mouse RAW264.7 cells assessed as reduction in nitric oxide production after 24 hrs by Griess method based ELISA; format: functional, cell-based; settings: RAW264.7, 24 h
[5] = Cytotoxicity against LPS-stimulated mouse RAW264.7 cells assessed as cell viability at 80 uM after 24 hrs by MTT assay (reference value: 100%); format: cell-based; settings: LPS-stimulated RAW264.7 cells, read-out: Activity
RAW264.7 [6] = experiment: Antiinflammatory activity in LPS-stimulated mouse RAW264.7 cells assessed as reduction in nitric oxide production at 80 uM after 24 hrs by Griess method based ELISA (reference value: 52.4 +/- 0.9 uM); format: functional
RAW264.7 [7] = experiment: Antiinflammatory activity in LPS-stimulated mouse RAW264.7 cells assessed as reduction in nitric oxide production at 40 uM after 24 hrs by Griess method based ELISA (reference value: 52.4 +/- 0.9 uM); format: functional
RAW264.7 [8] = experiment: Antiinflammatory activity in LPS-stimulated mouse RAW264.7 cells assessed as reduction in TNFalpha expression at 10 uM co-incubated with LPS for 24 hrs by RT-PCR method relative to untreated control; format: functional
RAW264.7 [9] = experiment: Antiinflammatory activity in LPS-stimulated mouse RAW264.7 cells assessed as reduction in iNOS expression at 20 uM co-incubated with LPS for 24 hrs by RT-PCR method relative to untreated control; format: functional
RAW264.7 [10] = experiment: Antiinflammatory activity in LPS-stimulated mouse RAW264.7 cells assessed as reduction in IL6 expression at 30 uM co-incubated with LPS for 24 hrs by RT-PCR method relative to untreated control; format: functional
RAW264.7 [11] = experiment: Antiinflammatory activity in LPS-stimulated mouse RAW264.7 cells assessed as reduction in TNFalpha expression at 30 uM co-incubated with LPS for 24 hrs by RT-PCR method relative to untreated control; format: functional
RAW264.7 [12] = experiment: Antiinflammatory activity in LPS-stimulated mouse RAW264.7 cells assessed as reduction in TNFalpha level at 10 to 40 uM co-incubated with LPS for 24 hrs by ELISA method; format: functional, cell-based
[13] = Cytotoxicity against LPS-stimulated mouse RAW264.7 cells assessed as cell viability at 10 uM after 24 hrs by MTT assay (reference value: 100%); format: cell-based; settings: LPS-stimulated RAW264.7 cells, read-out: Activity
RAW264.7 [14] = experiment: Antiinflammatory activity in LPS-stimulated mouse RAW264.7 cells assessed as reduction in COX2 expression at 30 uM co-incubated with LPS for 24 hrs by RT-PCR method relative to untreated control; format: functional
RAW264.7 [15] = experiment: Antiinflammatory activity in LPS-stimulated mouse RAW264.7 cells assessed as reduction in IL6 expression at 20 uM co-incubated with LPS for 24 hrs by RT-PCR method relative to untreated control; format: functional
RAW264.7 [16] = experiment: Antiinflammatory activity in LPS-stimulated mouse RAW264.7 cells assessed as reduction in COX2 expression at 10 uM co-incubated with LPS for 24 hrs by RT-PCR method relative to untreated control; format: functional
[17] = Cytotoxicity against LPS-stimulated mouse RAW264.7 cells assessed as cell viability at 20 uM after 24 hrs by MTT assay (reference value: 100%); format: cell-based; settings: LPS-stimulated RAW264.7 cells, read-out: Activity
RAW264.7 [18] = experiment: Antiinflammatory activity in LPS-stimulated mouse RAW264.7 cells assessed as reduction in TNFalpha expression at 20 uM co-incubated with LPS for 24 hrs by RT-PCR method relative to untreated control; format: functional
RAW264.7 [19] = experiment: Antiinflammatory activity in LPS-stimulated mouse RAW264.7 cells assessed as reduction in iNOS expression at 10 uM co-incubated with LPS for 24 hrs by RT-PCR method relative to untreated control; format: functional
RAW264.7 [20] = experiment: Induction of iNOS mRNA expression in LPS-non-stimulated mouse RAW264.7 cells by RT-PCR method; format: cell-based
RAW264.7 [21] = experiment: Antiinflammatory activity in LPS-stimulated mouse RAW264.7 cells assessed as reduction in COX2 expression at 20 uM co-incubated with LPS for 24 hrs by RT-PCR method relative to untreated control; format: functional
RAW264.7 [22] = experiment: Antiinflammatory activity in LPS-stimulated mouse RAW264.7 cells assessed as reduction in IL-1beta expression at 30 uM co-incubated with LPS for 24 hrs by RT-PCR method relative to untreated control; format: functional
RAW264.7 [23] = experiment: Antiinflammatory activity in LPS-stimulated mouse RAW264.7 cells assessed as reduction in IL-1beta expression at 10 uM co-incubated with LPS for 24 hrs by RT-PCR method relative to untreated control; format: functional
RAW264.7 [24] = experiment: Antiinflammatory activity in LPS-stimulated mouse RAW264.7 cells assessed as reduction in iNOS expression co-incubated with LPS for 24 hrs by RT-PCR method relative to untreated control; format: functional, cell-based
RAW264.7 [25] = experiment: Antiinflammatory activity in LPS-stimulated mouse RAW264.7 cells assessed as reduction in IL6 expression at 10 uM co-incubated with LPS for 24 hrs by RT-PCR method relative to untreated control; format: functional
RAW264.7 [26] = experiment: Antiinflammatory activity in LPS-stimulated mouse RAW264.7 cells assessed as reduction in nitric oxide production at 20 uM after 24 hrs by Griess method based ELISA (reference value: 52.4 +/- 0.9 uM); format: functional
RAW264.7 [27] = experiment: Antiinflammatory activity in LPS-stimulated mouse RAW264.7 cells assessed as reduction in iNOS expression at 30 uM co-incubated with LPS for 24 hrs by RT-PCR method relative to untreated control; format: functional
RAW264.7 [28] = experiment: Antiinflammatory activity in LPS-stimulated mouse RAW264.7 cells assessed as reduction in IL-1beta expression at 20 uM co-incubated with LPS for 24 hrs by RT-PCR method relative to untreated control; format: functional
RAW264.7 [29] = experiment: Antiinflammatory activity in LPS-stimulated mouse RAW264.7 cells assessed as reduction in nitric oxide production at 10 uM after 24 hrs by Griess method based ELISA (reference value: 52.4 +/- 0.9 uM); format: functional

## C[C@@H]1C[C@@H](O)[C@]2(C)CC[C@]3(C)[C@H](CC[C@@H]4[C@@]5(C)CC[C@H](O[C@@H]6O[C@H](CO)[C@@H](O)[C@H](O)[C@H]6O[C@@H]6O[C@H](CO)[C@@H](O)[C@H](O)[C@H]6O)C(C)(C)[C@@H]5CC[C@]43C)[C@@H]2[C@]1(C)O
[1]
  viability at 24 h, 40 µM: 90.3%
[2]
  viability at 24 h, 120 µM: 73.9%
RAW264.7 [3]
  Activity: 30.8 µM
RAW264.7 [4]
  IC50: 127 µg/mL (≈ 161 µM)
[5]
  viability at 24 h, 80 µM: 91.7%
RAW264.7 [6]
  Activity: 40.4 µM
RAW264.7 [7]
  Activity: 54.5 µM

## C[C@@H]1[C@H]2[C@H]3C[C@H](O)[C@@H]4[C@@]5(C)CC[C@H](O[C@H]6O[C@H](CO[C@H]7O[C@H](CO[C@H]8O[C@H](CO[C@H]9O[C@H](CO)[C@@H](O)[C@H](O)[C@H]9O)[C@@H](O)[C@H](O)[C@H]8O)[C@@H](O)[C@H](O)[C@H]7O)[C@@H](O)[C@H](O)[C@H]6O)C(C)(C)[C@@H]5CC[C@@]4(C)[C@]3(C)CC[C@@]2(C)CC[C@H]1C
RAW264.7 [8]
  fold change (FC): 0.6
[1]
  viability at 24 h, 40 µM: 98.7%
RAW264.7 [9]
  fold change (FC): 0.7
RAW264.7 [10]
  fold change (FC): 0.7
RAW264.7 [11]
  fold change (FC): 0.6
RAW264.7 [12]
  inhibition: Active
[13]
  viability at 24 h, 10 µM: 111%
RAW264.7 [14]
  fold change (FC): 0.5
RAW264.7 [15]
  fold change (FC): 0.6
RAW264.7 [16]
  fold change (FC): 0.5
[17]
  viability at 24 h, 20 µM: 126%
RAW264.7 [18]
  fold change (FC): 0.7
RAW264.7 [19]
  fold change (FC): 0.7
RAW264.7 [20]
  Activity: Non-toxic
RAW264.7 [21]
  fold change (FC): 0.6
RAW264.7 [22]
  fold change (FC): 0.6
RAW264.7 [23]
  fold change (FC): 0.7
RAW264.7 [24]
  inhibition: Dose-dependent effect
RAW264.7 [25]
  fold change (FC): 0.5
RAW264.7 [26]
  Activity: 39.8 µM
RAW264.7 [27]
  fold change (FC): 0.4
RAW264.7 [28]
  fold change (FC): 0.7
RAW264.7 [29]
  Activity: 46.4 µM
RAW264.7 [4]
  IC50: 25.9 µg/mL (≈ 23.7 µM)
RAW264.7 [7]
  Activity: 7.1 µM
